Measurements as given in the supplement of paper PMC10132981, “Formate overflow drives toxic folate trapping in MTHFD1 inhibited cancer cells” (Nature Metabolism, 2023).

Assays:
SW620 [1] = experiment: EC50 for viability (resazurin, 96 h); conditions: RPMI+GlutaMAX (10% FBS, 1% P/S)
SW620 [2] = experiment: cell viability relative to lowest-dose well (resazurin, 96 h); higher = more viable; conditions: RPMI + 10% FBS
How it was run: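 HCT116 (500 cells/well) or SW620 (1,000 cells/well) cells were seeded in 50 µl RPMI with 10% FBS plus a metabolite supplement in 384-well plates. Compounds were dispensed from 10 mM DMSO stocks as dilution series, and plates were incubated 96 h at 37 °C, 5% CO2. Viability was read as resazurin (10 µg ml^−1) conversion to resorufin after 5 h, by fluorescence at 595 nm. Values are percent of the lowest-dose well, with independent replicate cultures. Viability was read by resazurin-to-resorufin conversion and normalised to the lowest-dose vehicle well (=100%).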

Cc1[nH]nc2c1C(c1cc(CO)cc(-c3ccccc3)c1)(C(C)C)C(C#N)=C(N)O2 (stereo unspecified) [SHIN1]
SW620 [1]
Conditions | EC50 for viability [µM]
metabolite supplement: Hypoxanthine | > 10
metabolite supplement: Sodium Formate | > 10
metabolite supplement: Thymidine | 1.88
metabolite supplement: Thymidine + Hypoxanthine | > 10
metabolite supplement: Thymidine + Sodium Formate | > 10

cell viability [%], SW620 [2]
Conditions | metabolite supplement: 1mM sodium formate | metabolite supplement: 50uM thymidine | metabolite supplement: 50uM thymidine + 1mM sodium formate | metabolite supplement: 50uM thymidine + 250uM hypoxanthine | metabolite supplement: 250uM hypoxanthine | metabolite supplement: vehicle
0.001 µM | 100 | 100 | 100 | 100 | 100 | 100
0.01 µM | 99.57 | 98.9 | 102 | 103 | 102 | 100
0.0233 µM | 98.7 | 99.2 | 102 | 103 | 96.7 | 95
0.0541 µM | 98.5 | 102 | 104 | 103 | 101 | 98.63
0.126 µM | 97.4 | 102 | 104 | 103 | 101 | 97.1
0.293 µM | 96.93 | 99.6 | 101 | 105 | 98.8 | 95
0.682 µM | 95.3 | 96 | 103 | 104 | 98.8 | 88.6
1.59 µM | 94.8 | 85.5 | 100 | 108 | 98.8 | 82.9
3.69 µM | 92.3 | 75 | 98.1 | 104 | 96.4 | 72.3
8.6 µM | 89.6 | 69.3 | 95.2 | 102 | 93.9 | 68
20 µM | 78.2 | 66.5 | 83.8 | 90.8 | 84.8 | 66
